The structures appear in SMILES notation. pEC50: −log10 of the molar value.

One series has as its target T1, human liver GK (GST-hLGK1) (Homo sapiens, UniProt P35557).
T1 construct: with a BamHI site added to immediately before the initiation codon; made in house; host or cells: Escherichia coli BL21 (Stratagene), plasmid pGEX6P-2/hLGK1
T1 sequence (P35557 1-464 isoform P35557-3): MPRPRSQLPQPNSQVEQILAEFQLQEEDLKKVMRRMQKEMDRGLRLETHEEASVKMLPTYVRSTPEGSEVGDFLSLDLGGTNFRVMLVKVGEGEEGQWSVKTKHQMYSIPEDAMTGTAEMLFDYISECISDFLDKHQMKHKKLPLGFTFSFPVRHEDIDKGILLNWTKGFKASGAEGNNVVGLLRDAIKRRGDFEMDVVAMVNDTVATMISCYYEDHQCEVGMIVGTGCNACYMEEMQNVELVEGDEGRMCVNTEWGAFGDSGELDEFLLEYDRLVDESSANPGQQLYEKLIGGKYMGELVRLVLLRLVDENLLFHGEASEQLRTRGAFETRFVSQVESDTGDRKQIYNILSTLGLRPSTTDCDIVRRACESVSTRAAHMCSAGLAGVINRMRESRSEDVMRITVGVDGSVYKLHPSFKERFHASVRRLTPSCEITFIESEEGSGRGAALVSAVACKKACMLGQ
Briefly: Measurement of GK activation value. It is filed as biochemical. The following applies: GST-hLGK1 6 μg/mL, 5 mmol/L D-glucose, 50 μmol/L Mant-ATP, 60 min at 37° C.; concentration at midpoint between maximum activity value and control activity value. Here is the method:
GK enzyme reactions were performed in 50 mmol/L HEPES pH 7.4, 200 mmol/L KCl, 5 mmol/L MgCl2, 2 mmol/L DTT, containing 50 μmol/L 2′-(or -3′)-O—(N-methylanthraniloyl)adenosine 5′-triphosphate (Mant-ATP) (Jena Bioscience GmbH), 5 mmol/L D-glucose, 5% DMSO and 6 μg/mL GST-hLGK1 obtained in Reference Example 2A in a total volume 50 μL. The reactions were performed in 384 well black plates (Nalge Nunc International K.K.). Prior to the reaction, the enzyme and test compound were incubated for 10 min at 37° C., and 25 mM D-glucose solution (10 μL) was added to start the reaction.
After the incubation for 60 min at 37° C., the reaction was quenched by adding 25 μL of a quenching solution (containing 200 mM HEPES (pH 7.4), 20 mM MgCl2, 200 mM EDTA, 0.03% Triton-X 100, 0.3% Coating 3 reagent (Caliper Life Sciences, Inc.)).
Mant-ATP (substrate, 2′- (or -3′)-O—(N-methylanthraniloyl) adenosine 5′-triphosphate) and Mant-ADP (reaction resultant product) were separated from each well after the reaction by a microchip type capillary electrophoresis apparatus 250 HTS (Caliper Life Sciences, Inc.). The reaction rate [(reaction resultant product peak height)/(reaction resultant product peak height+substrate peak height)×100(%)] was calculated from the ratio of the substrate peak height and reaction resultant product peak height obtained by fluorescence detection (excitation wavelength 355 nm, measurement wavelength 460 nm) and used as the index of GK activity.
As a control group, the reaction rate was calculated in the same manner as above without the test compounds.
The percentage obtained by dividing the reaction rate of the well added with each concentration of the test compound (test compound addition group) by the reaction rate of the control group was taken as the GK activity value, and the concentration of the test compound at the midpoint between the maximum activity value of the test compound addition group and the control group activity value is shown as EC50 value.
What is called pEC50 is the negative decadic logarithm of the EC50, by convention in mol/L. `COCC(C)Oc1cc(Oc2ccc(S(C)(=O)=O)cc2)cc2cc(C3=NCC(CCO)S3)[nH]c12` (single isomer, unassigned) [Example 57, 2-(2-{7-(2-Methoxy-1-methylethoxy)-5-[4-(methylsulfonyl)phenoxy]-1H-indol-2-yl}-4,5-dihydro-1,3-thiazol-5-yl)ethanol]: the pEC50 is 7.77.

Test system in a further series: not given
Test: not given
Details: not given
The melting point is the temperature, or range, at which the solid turns liquid. On to `CC(C)Oc1cc(Oc2ccc(S(C)(=O)=O)cn2)cc2cc(C3=NCC(CC(C)(C)O)S3)[nH]c12` (stereo not shown) [Example 63, 2-Methyl-1-{2-[7-(1-methylethoxy)-5-{[5-(methylsulfonyl)pyridin-2-yl]oxy}-1H-indol-2-yl]-4,5-dihydro-1,3-thiazol-5-yl}propan-2-ol], for which the melting point was in the range of 151 to 153 °C.

`CC(C)Oc1cc(Oc2ccc(S(C)(=O)=O)cn2)cc2cc(C3=NCC(CC(N)=O)S3)[nH]c12` (stereo not shown) [Example 67, 2-{2-[7-(1-Methylethoxy)-5-{[5-(methylsulfonyl)pyridin-2-yl]oxy}-1H-indol-2-yl]-4,5-dihydro-1,3-thiazol-5-yl}acetamide]: the melting point lay in the range of 212 to 213 °C. Still for that read-out and setting: the value for `CNC(=O)CC1CN=C(c2cc3cc(Oc4ccc(S(C)(=O)=O)cn4)cc(OC(C)C)c3[nH]2)S1` (stereo not shown) [Example 68, N-Methyl-2-{2-[7-(1-methylethoxy)-5-{[5-(methylsulfonyl)pyridin-2-yl]oxy}-1H-indol-2-yl]-4,5-dihydro-1,3-thiazol-5-yl}acetamide] was 190 to 192 °C; that for `COCc1ccc(Oc2cc(OC(C)C)c3[nH]c(C4=NCC(CC(=O)NC5CC5)S4)cc3c2)cn1` (stereo not shown) [Example 72, N-Cyclopropyl-2-{2-[5-{[6-(methoxymethyl)pyridin-3-yl]oxy}-7-(1-methylethoxy)-1H-indol-2-yl]-4,5-dihydro-1,3-thiazol-5-yl}acetamide] was 100 to 101 °C; that for `COc1cc(Oc2ccc(S(C)(=O)=O)nc2)cc2cc(C3=NCC(CC(=O)NCC(C)(C)O)S3)[nH]c12` (stereo not shown) [Example 73, N-(2-Hydroxy-2-methylpropyl)-2-[2-(7-methoxy-5-{[6-(methylsulfonyl)pyridin-3-yl]oxy}-1H-indol-2-yl)-4,5-dihydro-1,3-thiazol-5-yl]acetamide] was 200 to 201 °C.

In turn, `COc1cc(Oc2ccc(S(C)(=O)=O)nc2)cc2cc(C3=NCC(CC(=O)NC4CC4)S3)[nH]c12` (stereo not shown) [Example 76, N-Cyclopropyl-2-[2-(7-methoxy-5-{[6-(methylsulfonyl)pyridin-3-yl]oxy}-1H-indol-2-yl)-4,5-dihydro-1,3-thiazol-5-yl]acetamide] gave a melting point of 248 to 249 °C.

Turning to `CCNC(=O)CC1CN=C(c2cc3cc(Oc4ccc(S(C)(=O)=O)nc4)cc(OC)c3[nH]2)S1` (stereo not shown) [Example 77, N-Ethyl-2-[2-(7-methoxy-5-{[6-(methylsulfonyl)pyridin-3-yl]oxy}-1H-indol-2-yl)-4,5-dihydro-1,3-thiazol-5-yl]acetamide], the melting point fell in the range of 236 to 237 °C. Still for that read-out and setting: the value for `COCC(C)Oc1cc(Oc2ccc(S(C)(=O)=O)nc2)cc2cc(C3=NCC(CCO)S3)[nH]c12` (stereo not shown) [Example 84, 2-{2-[7-(2-Methoxy-1-methylethoxy)-5-{[6-(methylsulfonyl)pyridin-3-yl]oxy}-1H-indol-2-yl]-4,5-dihydro-1,3-thiazol-5-yl}ethanol] was 138 to 139 °C; that for `COCC(C)Oc1cc(Oc2ccc(S(C)(=O)=O)nc2)cc2cc(C3=NCC(CC(N)=O)S3)[nH]c12` (stereo not shown) [Example 86, 2-{2-[7-(2-Methoxy-1-methylethoxy)-5-{[6-(methylsulfonyl)pyridin-3-yl]oxy}-1H-indol-2-yl]-4,5-dihydro-1,3-thiazol-5-yl}acetamide] was 131 to 132 °C. `CNC(=O)CC1CN=C(c2cc3cc(Oc4ccc(S(C)(=O)=O)nc4)cc(OC(C)COC)c3[nH]2)S1` (stereo not shown) [Example 87, 2-{2-[7-(2-Methoxy-1-methylethoxy)-5-{[6-(methylsulfonyl)pyridin-3-yl]oxy}-1H-indol-2-yl]-4,5-dihydro-1,3-thiazol-5-yl}-N-methylacetamide]: the melting point lay within 107 to 109 °C. Same read-out and setting: the result for `COCC(C)Oc1cc(Oc2ccc(S(C)(=O)=O)cc2)cc2cc(C3=NCC(C(OC)OC)S3)[nH]c12` (stereo not shown) [Example 88, 2-[5-(Dimethoxymethyl)-4,5-dihydro-1,3-thiazol-2-yl]-7-(2-methoxy-1-methylethoxy)-5-[4-(methylsulfonyl)phenoxy]-1H-indole] reads 109 to 112 °C; that for `COCCOc1c(F)c(Oc2ccc(S(C)(=O)=O)nc2)cc2cc(C3=NCC(CCO)S3)[nH]c12` (stereo not shown) [Example 90, 2-{2-[6-Fluoro-7-(2-methoxyethoxy)-5-{[6-(methylsulfonyl)pyridin-3-yl]oxy}-1H-indol-2-yl]-4,5-dihydro-1,3-thiazol-5-yl}ethanol], 160 to 161 °C. The molecule `CNC(=O)CC1CN=C(c2cc3cc(Oc4ccc(S(C)(=O)=O)nc4)c(F)c(OCCOC)c3[nH]2)S1` (stereo not shown) [Example 92, 2-{2-[6-Fluoro-7-(2-methoxyethoxy)-5-{[6-(methylsulfonyl)pyridin-3-yl]oxy}-1H-indol-2-yl]-4,5-dihydro-1,3-thiazol-5-yl}-N-methylacetamide] displayed a melting point of 151 to 152 °C. Consider `COCCOc1c(F)c(Oc2ccc(S(C)(=O)=O)nc2)cc2cc(C3=NCC(CC(N)=O)S3)[nH]c12` (stereo not shown) [Example 93, 2-{2-[6-Fluoro-7-(2-methoxyethoxy)-5-{[6-(methylsulfonyl)pyridin-3-yl]oxy}-1H-indol-2-yl]-4,5-dihydro-1,3-thiazol-5-yl}acetamide], for which the melting point lay in the range of 143 to 144 °C. Consider `CCOc1cc(Oc2ccc(S(C)(=O)=O)nc2)cc2cc(C3=NCC(CCO)S3)[nH]c12` (stereo not shown) [Example 95, 2-[2-(7-Ethoxy-5-{[6-(methylsulfonyl)pyridin-3-yl]oxy}-1H-indol-2-yl)-4,5-dihydro-1,3-thiazol-5-yl]ethanol], for which the melting point was 147 to 148 °C.

As to `CCOc1cc(Oc2ccc(S(C)(=O)=O)nc2)cc2cc(C3=NCC(CC(=O)O)S3)[nH]c12` (stereo not shown) [Example 96, [2-(7-Ethoxy-5-{[6-(methylsulfonyl)pyridin-3-yl]oxy}-1H-indol-2-yl)-4,5-dihydro-1,3-thiazol-5-yl]acetic acid], the melting point lay within 208 to 210 °C. `CCOc1cc(Oc2ccc(S(C)(=O)=O)nc2)cc2cc(C3=NCC(CC(=O)NC)S3)[nH]c12` (stereo not shown) [Example 97, 2-[2-(7-Ethoxy-5-{[6-(methylsulfonyl)pyridin-3-yl]oxy}-1H-indol-2-yl)-4,5-dihydro-1,3-thiazol-5-yl]-N-methylacetamide]: the melting point fell in the range of 233 to 235 °C. Still for that read-out and setting: the result for `CCOc1cc(Oc2ccc(S(C)(=O)=O)nc2)cc2cc(C3=NCC(CC(N)=O)S3)[nH]c12` (stereo not shown) [Example 100, 2-[2-(7-Ethoxy-5-{[6-(methylsulfonyl)pyridin-3-yl]oxy}-1H-indol-2-yl)-4,5-dihydro-1,3-thiazol-5-yl]acetamide] reads 195 to 196 °C. `COc1cc(Oc2ccc(S(C)(=O)=O)cc2)cc2cc(C3=NCC(CC(=O)O)S3)[nH]c12` (stereo not shown) [Example 102, (2-{7-Methoxy-5-[4-(methylsulfonyl)phenoxy]-1H-indol-2-yl}-4,5-dihydro-1,3-thiazol-5-yl)acetic acid] registered a melting point of 144 to 145 °C.

In the case of `CNC(=O)CC1CN=C(c2cc3cc(Oc4ccc(S(C)(=O)=O)cc4)cc(OC)c3[nH]2)S1` (stereo not shown) [Example 103, 2-(2-{7-Methoxy-5-[4-(methylsulfonyl)phenoxy]-1H-indol-2-yl}-4,5-dihydro-1,3-thiazol-5-yl)-N-methylacetamide], the melting point fell in the range of 125 to 126 °C. For `COc1cc(Oc2ccc(S(C)(=O)=O)cc2)cc2cc(C3=NCC(CC(N)=O)S3)[nH]c12` (stereo not shown) [Example 104, 2-(2-{7-Methoxy-5-[4-(methylsulfonyl)phenoxy]-1H-indol-2-yl}-4,5-dihydro-1,3-thiazol-5-yl)acetamide], the melting point is 169 to 170 °C.

The values above are taken from US8673942B2, “Fused ring compounds and use thereof” (Takeda Pharmaceutical Company Limited, priority 2008, dated 2014).
